Experimental data taken from PubChem BioAssay (NCI).
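The concentration for 50% growth inhibition is given as GI50. TGI denotes the concentration required for complete inhibition of growth.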

Assays:
Assay in all cases: NCI tumour cell line growth inhibition, 384-well format
786-0 renal = tested on: 786-0 renal
A498 renal = tested on: A498 renal
A549 NSCLC = tested on: A549 NSCLC
ACHN renal = tested on: ACHN renal
BT-549 breast = tested on: BT-549 breast
CAKI-1 renal = tested on: CAKI-1 renal
COLO 205 colon = tested on: COLO 205 colon
DU-145 prostate = tested on: DU-145 prostate
EKVX NSCLC = tested on: EKVX NSCLC
HCC-2998 colon = tested on: HCC-2998 colon
HCT-116 colon = tested on: HCT-116 colon
HCT-15 colon = tested on: HCT-15 colon
HL-60(TB) leukemia = tested on: HL-60(TB) leukemia
HOP-62 NSCLC = tested on: HOP-62 NSCLC
HOP-92 NSCLC = tested on: HOP-92 NSCLC
HS 578T breast = tested on: HS 578T breast
HT29 colon = tested on: HT29 colon
IGROV1 ovarian = tested on: IGROV1 ovarian
KM12 colon = tested on: KM12 colon
LOX IMVI melanoma = tested on: LOX IMVI melanoma
M14 melanoma = tested on: M14 melanoma
MALME-3M melanoma = tested on: MALME-3M melanoma
MCF7 breast = tested on: MCF7 breast
MDA-MB-231 breast = tested on: MDA-MB-231 breast
MDA-MB-435 melanoma = tested on: MDA-MB-435 melanoma
MDA-MB-468 breast = tested on: MDA-MB-468 breast
MOLT-4 leukemia = tested on: MOLT-4 leukemia
NCI-H226 lung = tested on: NCI-H226 lung
NCI-H23 lung = tested on: NCI-H23 lung
NCI-H322M lung = tested on: NCI-H322M lung
NCI-H460 NSCLC = tested on: NCI-H460 NSCLC
NCI-H522 lung = tested on: NCI-H522 lung
NCI/ADR-RES ovarian = tested on: NCI/ADR-RES ovarian
OVCAR-3 ovarian = tested on: OVCAR-3 ovarian
OVCAR-4 ovarian = tested on: OVCAR-4 ovarian
OVCAR-5 ovarian = tested on: OVCAR-5 ovarian
OVCAR-8 ovarian = tested on: OVCAR-8 ovarian
PC-3 prostate = tested on: PC-3 prostate
RPMI-8226 leukemia = tested on: RPMI-8226 leukemia
RXF 393 renal = tested on: RXF 393 renal
SF-268 CNS = tested on: SF-268 CNS
SF-295 CNS = tested on: SF-295 CNS
SF-539 CNS = tested on: SF-539 CNS
SK-MEL-28 melanoma = tested on: SK-MEL-28 melanoma
SK-MEL-5 melanoma = tested on: SK-MEL-5 melanoma
SK-OV-3 ovarian = tested on: SK-OV-3 ovarian
SN12C renal = tested on: SN12C renal
SNB-19 CNS = tested on: SNB-19 CNS
SNB-75 CNS = tested on: SNB-75 CNS
SR leukemia = tested on: SR leukemia
T-47D breast = tested on: T-47D breast
TK-10 renal = tested on: TK-10 renal
U251 glioblastoma = tested on: U251 glioblastoma
UACC-257 melanoma = tested on: UACC-257 melanoma
UACC-62 melanoma = tested on: UACC-62 melanoma
UO-31 renal = tested on: UO-31 renal
CCRF-CEM leukemia = tested on: CCRF-CEM leukemia
K-562 leukemia = tested on: K-562 leukemia
SW-620 colon = tested on: SW-620 colon

## COc1cc2c(Nc3ccc(Br)cc3F)ncnc2cc1OCC1CCN(C)CC1
786-0 renal
  GI50: 1.37 µM
  TGI: 2.87 µM
A498 renal
  GI50: 1.44 µM
  TGI: 3.34 µM
A549 NSCLC
  GI50: 2.07 µM
  TGI: 11.2 µM
ACHN renal
  GI50: 0.553 µM
  TGI: 3.91 µM
BT-549 breast
  GI50: 2.24 µM
  TGI: 5.06 µM
CAKI-1 renal
  GI50: 1.23 µM
  TGI: 2.55 µM
COLO 205 colon
  GI50: 2.35 µM
  TGI: 6.01 µM
DU-145 prostate
  GI50: 2.22 µM
  TGI: 12.4 µM
EKVX NSCLC
  GI50: 0.943 µM
  TGI: 8.63 µM
HCC-2998 colon
  GI50: 2.39 µM
  TGI: 5.59 µM
HCT-116 colon
  GI50: 3.1 µM
  TGI: 10.7 µM
HCT-15 colon
  GI50: 1.98 µM
  TGI: 5.36 µM
HL-60(TB) leukemia
  GI50: 2.09 µM
  TGI: 3.53 µM
HOP-62 NSCLC
  GI50: 2.77 µM
  TGI: 10.4 µM
HOP-92 NSCLC
  GI50: 1.37 µM
  TGI: 2.84 µM
HS 578T breast
  GI50: 1.52 µM
  TGI: 2.92 µM
HT29 colon
  GI50: 1.78 µM
  TGI: 3.61 µM
IGROV1 ovarian
  GI50: 0.262 µM
  TGI: 1.04 µM
KM12 colon
  GI50: 5.9 µM
  TGI: 17.4 µM
LOX IMVI melanoma
  GI50: 2.04 µM
  TGI: 4.24 µM
M14 melanoma
  GI50: 1.98 µM
  TGI: 3.42 µM
MALME-3M melanoma
  GI50: 1.77 µM
  TGI: 3.16 µM
MCF7 breast
  GI50: 2.78 µM
  TGI: 11.1 µM
MDA-MB-231 breast
  GI50: 1.87 µM
  TGI: 4.3 µM
MDA-MB-435 melanoma
  GI50: 2.59 µM
  TGI: 4.42 µM
MDA-MB-468 breast
  GI50: 0.551 µM
  TGI: 1.92 µM
MOLT-4 leukemia
  GI50: 1.92 µM
  TGI: 5.65 µM
NCI-H226 lung
  GI50: 1.3 µM
  TGI: 5.47 µM
NCI-H23 lung
  GI50: 3.38 µM
  TGI: 15.5 µM
NCI-H322M lung
  GI50: 0.298 µM
  TGI: 0.9 µM
NCI-H460 NSCLC
  GI50: 4.66 µM
  TGI: 16 µM
NCI-H522 lung
  GI50: 0.616 µM
  TGI: 2.53 µM
NCI/ADR-RES ovarian
  GI50: 2.24 µM
  TGI: 6.43 µM
OVCAR-3 ovarian
  GI50: 1.05 µM
  TGI: 4.52 µM
OVCAR-4 ovarian
  GI50: 2.3 µM
  TGI: 10.2 µM
OVCAR-5 ovarian
  GI50: 2.19 µM
  TGI: 11.5 µM
OVCAR-8 ovarian
  GI50: 2.54 µM
  TGI: 7.23 µM
PC-3 prostate
  GI50: 3.46 µM
  TGI: 18.4 µM
RPMI-8226 leukemia
  GI50: 2.84 µM
  TGI: 6.12 µM
RXF 393 renal
  GI50: 0.836 µM
  TGI: 2.48 µM
SF-268 CNS
  GI50: 2.46 µM
  TGI: 7.05 µM
SF-295 CNS
  GI50: 66.6 µM
  TGI: > 100 µM
SF-539 CNS
  GI50: 2.64 µM
  TGI: 8.64 µM
SK-MEL-28 melanoma
  GI50: 1.71 µM
  TGI: 3.11 µM
SK-MEL-5 melanoma
  GI50: 1.54 µM
  TGI: 3.02 µM
SK-OV-3 ovarian
  GI50: 1.93 µM
  TGI: 6.31 µM
SN12C renal
  GI50: 2.33 µM
  TGI: 16.3 µM
SNB-19 CNS
  GI50: 10.6 µM
  TGI: > 100 µM
SNB-75 CNS
  GI50: 1.57 µM
  TGI: 3.61 µM
SR leukemia
  GI50: 3.54 µM
  TGI: 5.01 µM
T-47D breast
  GI50: 1.33 µM
  TGI: 8.79 µM
TK-10 renal
  GI50: 1.98 µM
  TGI: 5.1 µM
U251 glioblastoma
  GI50: 4.46 µM
  TGI: 17.1 µM
UACC-257 melanoma
  GI50: 1.9 µM
  TGI: 3.32 µM
UACC-62 melanoma
  GI50: 1.83 µM
  TGI: 3.37 µM
UO-31 renal
  GI50: 1.16 µM
  TGI: 2.46 µM

## COc1ccccc1N1CCN(C(=O)c2ccc(NS(=O)(=O)c3cccc4cccnc34)cc2)CC1
786-0 renal
  GI50: 40.8 µM
  TGI: > 100 µM
A498 renal
  GI50: 71.9 µM
  TGI: > 100 µM
A549 NSCLC
  GI50: 18.5 µM
  TGI: > 100 µM
ACHN renal
  GI50: > 100 µM
  TGI: > 100 µM
BT-549 breast
  GI50: 33 µM
  TGI: > 100 µM
CAKI-1 renal
  GI50: 74.5 µM
  TGI: > 100 µM
CCRF-CEM leukemia
  GI50: 9.02 µM
  TGI: 23.6 µM
COLO 205 colon
  GI50: 31.5 µM
  TGI: > 100 µM
DU-145 prostate
  GI50: > 100 µM
  TGI: > 100 µM
EKVX NSCLC
  GI50: 37.9 µM
  TGI: > 100 µM
HCC-2998 colon
  GI50: 12.7 µM
  TGI: 56.1 µM
HCT-116 colon
  GI50: 32.8 µM
  TGI: > 100 µM
HCT-15 colon
  GI50: 28.9 µM
  TGI: > 100 µM
HL-60(TB) leukemia
  GI50: 18.2 µM
  TGI: 33.3 µM
HOP-62 NSCLC
  GI50: 32.1 µM
  TGI: > 100 µM
HOP-92 NSCLC
  GI50: > 100 µM
  TGI: > 100 µM
HS 578T breast
  GI50: 25.9 µM
  TGI: > 100 µM
HT29 colon
  GI50: > 100 µM
  TGI: > 100 µM
IGROV1 ovarian
  GI50: > 100 µM
  TGI: > 100 µM
K-562 leukemia
  GI50: 10 µM
  TGI: 34.6 µM
KM12 colon
  GI50: > 100 µM
  TGI: > 100 µM
LOX IMVI melanoma
  GI50: > 100 µM
  TGI: > 100 µM
M14 melanoma
  GI50: 26.9 µM
  TGI: 84.9 µM
MALME-3M melanoma
  GI50: > 100 µM
  TGI: > 100 µM
MCF7 breast
  GI50: 24.5 µM
  TGI: > 100 µM
MDA-MB-231 breast
  GI50: 63.5 µM
  TGI: > 100 µM
MDA-MB-435 melanoma
  GI50: 20.4 µM
  TGI: 42.9 µM
MDA-MB-468 breast
  GI50: 4.03 µM
  TGI: 17.6 µM
MOLT-4 leukemia
  GI50: 4.05 µM
  TGI: > 100 µM
NCI-H226 lung
  GI50: 8.48 µM
  TGI: > 100 µM
NCI-H23 lung
  GI50: > 100 µM
  TGI: > 100 µM
NCI-H322M lung
  GI50: 53.4 µM
  TGI: > 100 µM
NCI-H460 NSCLC
  GI50: 14.1 µM
  TGI: 31 µM
NCI-H522 lung
  GI50: 16.8 µM
  TGI: 34.2 µM
NCI/ADR-RES ovarian
  GI50: > 100 µM
  TGI: > 100 µM
OVCAR-3 ovarian
  GI50: 24.9 µM
  TGI: 81.4 µM
OVCAR-4 ovarian
  GI50: > 100 µM
  TGI: > 100 µM
OVCAR-5 ovarian
  GI50: > 100 µM
  TGI: > 100 µM
OVCAR-8 ovarian
  GI50: 28.1 µM
  TGI: > 100 µM
PC-3 prostate
  GI50: 56 µM
  TGI: > 100 µM
RPMI-8226 leukemia
  GI50: 10.2 µM
  TGI: 23.6 µM
RXF 393 renal
  GI50: 18.2 µM
  TGI: 80.9 µM
SF-268 CNS
  GI50: 13.7 µM
  TGI: 47.4 µM
SF-295 CNS
  GI50: > 100 µM
  TGI: > 100 µM
SF-539 CNS
  GI50: 32 µM
  TGI: > 100 µM
SK-MEL-28 melanoma
  GI50: > 100 µM
  TGI: > 100 µM
SK-MEL-5 melanoma
  GI50: 7.09 µM
  TGI: > 100 µM
SK-OV-3 ovarian
  GI50: 38.9 µM
  TGI: > 100 µM
SN12C renal
  GI50: 61.3 µM
  TGI: > 100 µM
SNB-19 CNS
  GI50: 52.1 µM
  TGI: > 100 µM
SNB-75 CNS
  GI50: > 100 µM
  TGI: > 100 µM
SW-620 colon
  GI50: 44.8 µM
  TGI: > 100 µM
TK-10 renal
  GI50: > 100 µM
  TGI: > 100 µM
U251 glioblastoma
  GI50: 40.7 µM
  TGI: > 100 µM
UACC-257 melanoma
  GI50: > 100 µM
  TGI: > 100 µM
UACC-62 melanoma
  GI50: 58.6 µM
  TGI: > 100 µM
UO-31 renal
  GI50: > 100 µM
  TGI: > 100 µM
